Laboratory results: the NIST ThermoML archive (doi:10.1016/j.jct.2015.06.021)
Values joined by “and” are separate entries in the source; they are usually repeats but may differ in a detail not shown here. Equal values may be shown once. Numbers after ± are expanded uncertainties.

How the values were obtained:
[1] = Molar enthalpy of transition or fusion; conditions: Crystal; DSC
[2] = Crystal; for vapor or sublimation pressure: Calculated from knudsen effusion weight loss; for Normal melting temperature: DTA

c1ccc2cc3ccccc3cc2c1 [anthracene]
Molar enthalpy of transition or fusion [1]: 27.4 ± 3.9 kJ/mol
vapor or sublimation pressure ([2]; 301.3 K): 1.3e-06 ± 1e-07 kPa
vapor or sublimation pressure ([2]; 303.3 K): 1.8e-06 ± 2e-07 kPa
vapor or sublimation pressure ([2]; 303.6 K): 1.7e-06 ± 2e-07 kPa
vapor or sublimation pressure ([2]; 305.7 K): 2.5e-06 ± 3e-07 kPa
vapor or sublimation pressure ([2]; 305.9 K): 2.2e-06 ± 2e-07 kPa
vapor or sublimation pressure ([2]; 307.8 K): 3.2e-06 ± 6e-07 kPa
vapor or sublimation pressure ([2]; 308.1 K): 3.9e-06 ± 6e-07 kPa
vapor or sublimation pressure ([2]; 308.2 K): 3.3e-06 ± 3e-07 kPa
vapor or sublimation pressure ([2]; 310 K): 4.3e-06 ± 4e-07 kPa
vapor or sublimation pressure ([2]; 310.2 K): 4.2e-06 ± 5e-07 kPa
vapor or sublimation pressure ([2]; 310.5 K): 4.5e-06 ± 5e-07 kPa
vapor or sublimation pressure ([2]; 313.3 K): 6.5e-06 ± 6e-07 kPa
vapor or sublimation pressure ([2]; 314.5 K): 7.3e-06 ± 7e-07 kPa
vapor or sublimation pressure ([2]; 314.7 K): 7.4e-06 ± 7e-07 kPa
vapor or sublimation pressure ([2]; 314.9 K): 7.6e-06 ± 8e-07 kPa
vapor or sublimation pressure ([2]; 317.6 K): 1.05e-05 ± 1e-06 kPa
vapor or sublimation pressure ([2]; 318.8 K): 1.1e-05 ± 1.1e-06 kPa
vapor or sublimation pressure ([2]; 319.2 K): 1.28e-05 ± 1.5e-06 kPa
vapor or sublimation pressure ([2]; 322.3 K): 1.81e-05 ± 1.8e-06 kPa
vapor or sublimation pressure ([2]; 323.1 K): 2.05e-05 ± 2e-06 kPa and 1.74e-05 ± 1.7e-06 kPa
vapor or sublimation pressure ([2]; 323.2 K): 2.12e-05 ± 2.1e-06 kPa
vapor or sublimation pressure ([2]; 323.8 K): 2.09e-05 ± 2e-06 kPa
vapor or sublimation pressure ([2]; 326.6 K): 2.96e-05 ± 2.9e-06 kPa
vapor or sublimation pressure ([2]; 328 K): 3.16e-05 ± 3.1e-06 kPa
vapor or sublimation pressure ([2]; 328.6 K): 3.48e-05 ± 3.5e-06 kPa
vapor or sublimation pressure ([2]; 331.5 K): 4.92e-05 ± 4.9e-06 kPa
vapor or sublimation pressure ([2]; 333.1 K): 6.27e-05 ± 6.2e-06 kPa
vapor or sublimation pressure ([2]; 333.3 K): 6.36e-05 ± 6.2e-06 kPa
vapor or sublimation pressure ([2]; 333.7 K): 6.31e-05 ± 6.1e-06 kPa
vapor or sublimation pressure ([2]; 336.3 K): 8.09e-05 ± 7.9e-06 kPa
vapor or sublimation pressure ([2]; 338.2 K): 8.49e-05 ± 8.3e-06 kPa
vapor or sublimation pressure ([2]; 338.8 K): 0.0001028 ± 1.2e-05 kPa and 9.99e-05 ± 1.1e-05 kPa
vapor or sublimation pressure ([2]; 343.1 K): 0.000173 ± 1.8e-05 kPa and 0.0001738 ± 1.8e-05 kPa
vapor or sublimation pressure ([2]; 343.4 K): 0.0001646 ± 1.7e-05 kPa and 0.0001599 ± 1.8e-05 kPa
vapor or sublimation pressure ([2]; 348.1 K): 0.0002492 ± 2.5e-05 kPa
vapor or sublimation pressure ([2]; 348.2 K): 0.0002587 ± 2.6e-05 kPa
vapor or sublimation pressure ([2]; 353.2 K): 0.0004347 ± 4.3e-05 kPa
vapor or sublimation pressure ([2]; 363.2 K): 0.001018 ± 0.00012 kPa
vapor or sublimation pressure ([2]; 373.2 K): 0.002158 ± 0.00026 kPa
Normal melting temperature [2]: 217 ± 2 °C

c1ccc2c(c1)ccc1ccccc12 [phenanthrene]
Molar enthalpy of transition or fusion [1]: 15.1 ± 2.2 kJ/mol
vapor or sublimation pressure ([2]; 296.2 K): 1.61e-05 ± 1.6e-06 kPa
vapor or sublimation pressure ([2]; 297.2 K): 1.86e-05 ± 1.9e-06 kPa
vapor or sublimation pressure ([2]; 298.2 K): 2.1e-05 ± 2.1e-06 kPa
vapor or sublimation pressure ([2]; 299.2 K): 2.43e-05 ± 2.4e-06 kPa
vapor or sublimation pressure ([2]; 300.2 K): 2.7e-05 ± 2.7e-06 kPa
vapor or sublimation pressure ([2]; 301.2 K): 3e-05 ± 3e-06 kPa
vapor or sublimation pressure ([2]; 302.2 K): 3.43e-05 ± 3.4e-06 kPa
vapor or sublimation pressure ([2]; 303.2 K): 3.83e-05 ± 3.8e-06 kPa
vapor or sublimation pressure ([2]; 304.2 K): 4.3e-05 ± 4.3e-06 kPa
vapor or sublimation pressure ([2]; 305.2 K): 4.88e-05 ± 4.9e-06 kPa
vapor or sublimation pressure ([2]; 306.2 K): 5.4e-05 ± 5.4e-06 kPa
vapor or sublimation pressure ([2]; 307.2 K): 6.08e-05 ± 6e-06 kPa
vapor or sublimation pressure ([2]; 308.2 K): 6.73e-05 ± 6.7e-06 kPa
vapor or sublimation pressure ([2]; 309.2 K): 7.49e-05 ± 7.4e-06 kPa
vapor or sublimation pressure ([2]; 310.2 K): 8.41e-05 ± 8.3e-06 kPa
vapor or sublimation pressure ([2]; 311.2 K): 9.35e-05 ± 9.3e-06 kPa
vapor or sublimation pressure ([2]; 312.2 K): 0.0001041 ± 1e-05 kPa
vapor or sublimation pressure ([2]; 313.2 K): 0.0001151 ± 1.1e-05 kPa
Normal melting temperature [2]: 99 ± 2 °C
